# Laboratory results taken from PMC4612780, “Divergent Inhibitor Susceptibility among Airway Lumen-Accessible Tryptic Proteases” (PLoS ONE, 2015).
# Key:
# Assay in all cases: chromogenic hydrolysis of QAR, […] nm, initial rates
# Format in all cases: biochemical
# [1] = biological target: T1, HAT; airway trypsin-like protease (Homo sapiens, UniProt O60235); details: 1 mM QAR, pH 7.6, 120 mM NaCl, 0.05% Tween 20, 100 ug/ml heparin, 37 C; HAT 0.72 nM; unreliable (beyond tested range 1.6-20 uM)
# T1 construct: gene TMPRSS11D; recombinant soluble catalytic domain (R&D Systems)
# T1 sequence (O60235 187-418 limits assumed): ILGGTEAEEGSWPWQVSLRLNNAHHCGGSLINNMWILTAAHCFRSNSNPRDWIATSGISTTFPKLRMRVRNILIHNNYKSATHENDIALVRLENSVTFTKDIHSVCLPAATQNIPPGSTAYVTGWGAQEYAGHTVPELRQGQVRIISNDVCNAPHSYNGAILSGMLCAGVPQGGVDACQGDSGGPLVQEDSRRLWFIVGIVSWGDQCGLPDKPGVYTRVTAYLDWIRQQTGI
# [2] = biological target: T2, β-tryptase; human lung (β) tryptase; details: 1 mM QAR, pH 7.6, 120 mM NaCl, 0.05% Tween 20, 100 ug/ml heparin, 37 C, tryptase 0.70 nM
# T2 construct: gene TPSAB1; native soluble tetramer from human lung (EMD-Millipore)
# matriptase [3] = biological target: T3, matriptase (Homo sapiens, UniProt Q9Y5Y6); details: 1 mM QAR, pH 7.6, 120 mM NaCl, 0.05% Tween 20, 100 ug/ml heparin, 37 C; matriptase 2.4 nM; unreliable (beyond tested range 0.24-1200 uM)
# T3 construct: gene ST14
# T3 sequence (Q9Y5Y6 615-855 limits assumed): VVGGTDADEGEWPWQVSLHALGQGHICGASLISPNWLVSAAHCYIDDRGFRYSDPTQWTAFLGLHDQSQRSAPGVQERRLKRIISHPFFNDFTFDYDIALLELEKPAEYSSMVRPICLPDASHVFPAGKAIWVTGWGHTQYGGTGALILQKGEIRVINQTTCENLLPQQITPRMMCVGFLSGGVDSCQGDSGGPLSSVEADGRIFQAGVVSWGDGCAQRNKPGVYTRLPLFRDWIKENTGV
# prostasin = biological target: T4, prostasin (Homo sapiens, UniProt Q16651); details: 1 mM QAR, pH 7.6, 120 mM NaCl, 0.05% Tween 20, 100 ug/ml heparin, 37 C, prostasin 80 nM
# T4 construct: gene PRSS8; recombinant soluble catalytic domain (R&D Systems)
# T4 sequence (Q16651 33-322 limits assumed): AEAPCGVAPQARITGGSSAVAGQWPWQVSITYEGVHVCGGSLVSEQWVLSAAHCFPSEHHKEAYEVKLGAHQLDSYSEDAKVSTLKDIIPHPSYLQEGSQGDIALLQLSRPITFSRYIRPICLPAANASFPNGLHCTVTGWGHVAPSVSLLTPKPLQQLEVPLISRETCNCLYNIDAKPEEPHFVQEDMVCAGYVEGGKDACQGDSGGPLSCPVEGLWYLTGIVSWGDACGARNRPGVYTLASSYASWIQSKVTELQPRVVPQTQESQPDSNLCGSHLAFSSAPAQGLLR
# [4] = biological target: T1, HAT; airway trypsin-like protease; details: 1 mM QAR, pH 7.6, 120 mM NaCl, 0.05% Tween 20, 100 ug/ml heparin, 37 C, HAT 0.72 nM
# matriptase [5] = biological target: T3, matriptase; details: 1 mM QAR, pH 7.6, 120 mM NaCl, 0.05% Tween 20, 100 ug/ml heparin, 37 C, matriptase 2.4 nM
structure (smiles),measurement,setting,value
N=C(N)c1ccccc1 [benzamidine],HAT,[1],"1.4e6 [2.0e5, 9.6e6] [inhibitor]/[enzyme] ratio (dimensionless)"
same,Tryptase,[2],"4.7e4 [3.4e4, 6.5e4] [inhibitor]/[enzyme] ratio (dimensionless)"
same,Matriptase,matriptase [3],"1.1e6 [9.4e5, 1.2e6] [inhibitor]/[enzyme] ratio (dimensionless)"
N=C(N)Nc1ccc(C(=O)Oc2ccc3cc(C(=N)N)ccc3c2)cc1 [nafamostat],Prostasin,prostasin,"11 [5.6, 20] [inhibitor]/[enzyme] ratio (dimensionless)"
same,Tryptase,"[2]; covalent, suicide substrate, near-stoichiometric","0.44 [0.29, 0.67] [inhibitor]/[enzyme] ratio (dimensionless)"
same,HAT,[4],"191 [154, 239] [inhibitor]/[enzyme] ratio (dimensionless)"
CN(C)C(=O)COC(=O)Cc1ccc(OC(=O)c2ccc(NC(=N)N)cc2)cc1 [camostat],Matriptase,matriptase [5]; covalent (acyl intermediate),"96 [80, 115] [inhibitor]/[enzyme] ratio (dimensionless)"
same,Prostasin,prostasin; covalent (acyl intermediate),"14 [7.7, 25] [inhibitor]/[enzyme] ratio (dimensionless)"
same,Tryptase,[2]; covalent (acyl intermediate),"5.2 [3.7, 7.2] [inhibitor]/[enzyme] ratio (dimensionless)"
same,HAT,[4]; covalent (acyl intermediate),"20 [16, 24] [inhibitor]/[enzyme] ratio (dimensionless)"
"N=C(N)c1ccc2[nH]c(Cc3nc4ccc(C(=N)N)cc4[nH]3)nc2c1 [BABIM, bis(5-amidino-2-benzimidazolyl)methane]",Matriptase,matriptase [5],"0.98 [0.87, 1.11] [inhibitor]/[enzyme] ratio (dimensionless)"
same,Tryptase,[2],"108 [78, 149] [inhibitor]/[enzyme] ratio (dimensionless)"
same,HAT,[4]; brackets 95% CI,"71 [48, 105] [inhibitor]/[enzyme] ratio (dimensionless)"
